In patent US6703405B2, “Substituted 4-phenyltetrahydroisoquinolinium salts, process for their preparation, their use as a medicament, and medicament containing them” (Aventis Pharma Deutschland GmbH, priority 2001, dated 2004) one finds IC50 data, which are given here for five compounds.

Counter-ions that a name gives are not always drawn.

The target of the experiment is T1, rNHE3 (Rattus norvegicus, UniProt P26433).
T1 construct: expressed in transfected cells
T1 sequence (P26433 29-831): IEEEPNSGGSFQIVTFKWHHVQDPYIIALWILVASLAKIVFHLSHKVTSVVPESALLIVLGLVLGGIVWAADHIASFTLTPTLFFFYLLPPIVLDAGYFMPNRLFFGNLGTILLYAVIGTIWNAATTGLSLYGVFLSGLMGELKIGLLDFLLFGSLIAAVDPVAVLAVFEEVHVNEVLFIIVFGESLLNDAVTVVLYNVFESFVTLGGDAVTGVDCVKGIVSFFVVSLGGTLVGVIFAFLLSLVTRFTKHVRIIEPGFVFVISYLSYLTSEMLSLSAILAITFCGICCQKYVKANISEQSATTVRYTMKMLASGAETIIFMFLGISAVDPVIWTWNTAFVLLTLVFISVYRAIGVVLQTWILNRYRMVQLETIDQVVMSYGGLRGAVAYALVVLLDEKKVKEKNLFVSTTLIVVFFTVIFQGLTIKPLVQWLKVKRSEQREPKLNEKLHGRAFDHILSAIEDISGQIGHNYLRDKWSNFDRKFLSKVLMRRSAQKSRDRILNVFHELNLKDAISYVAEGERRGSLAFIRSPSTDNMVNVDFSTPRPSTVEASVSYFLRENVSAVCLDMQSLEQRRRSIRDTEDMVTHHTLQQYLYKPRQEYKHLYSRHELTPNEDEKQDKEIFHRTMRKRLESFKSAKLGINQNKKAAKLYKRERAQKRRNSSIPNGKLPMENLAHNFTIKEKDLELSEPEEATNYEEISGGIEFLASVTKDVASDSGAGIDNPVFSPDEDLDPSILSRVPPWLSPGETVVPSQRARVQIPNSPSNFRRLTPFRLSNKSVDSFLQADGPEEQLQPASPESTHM
The experiment is described as follows: recovery of intracellular pH (pHi) after acidification, BCECF fluorescence. The format is cell-based. The following applies: pH recovery recorded for three minutes with NHE3; bicarbonate-free conditions. As to the method: In this test, the recovery in the intracellular pH (pHi) after an acidification is ascertained, which is initiated if the NHE is capable of functioning, even under bicarbonate-free conditions. For this purpose, the pHi was determined using the pH-sensitive fluorescent dye BCECF (Calbiochem, the precursor BCECF-AM is employed). The cells were initially loaded with BCECF. The BCECF fluorescence was determined in a “Ratio Fluorescence Spectrometer” (Photon Technology International, South Brunswick, N.J., USA) at excitation wavelengths of 505 and 440 nm and an emission wavelength of 535 nm and converted into the pHi using calibration curves. The cells were incubated in NH4Cl buffer (pH 7.4) (NH4Cl buffer: 115 mM NaCl, 20 mM NH4Cl, 5 mM KCl, 1 mM CaCl2, 1 mM MgSO4, 20 mM Hepes, 5 mM glucose, 1 mg/ml BSA; a pH of 7.4 was adjusted with 1 M NaOH) even during the BCECF loading. The intracellular acidification was induced by adding 975 μl of an NH4Cl-free buffer (see below) to 25 μl aliquots of the cells incubated in NH4Cl buffer. The subsequent rate of pH recovery was recorded for two minutes with NHE1, five minutes with NHE2 and three minutes with NHE3. To calculate the inhibitory potency of the tested substances, the cells were initially investigated in buffers with which a complete or absolutely no pH recovery took place. For complete pH recovery (100%), the cells were incubated in Na^+-containing buffer (133.8 mM NaCl, 4.7 mM KCl, 1.25 mM CaCl2, 1.25 mM MgCl2, 0.97 mM Na2HPO4, 0.23 mM NaH2PO4, 5 mM Hepes, 5 mM glucose, a pH of 7.0 is adjusted with 1 M NaOH). To determine the 0% value, the cells were incubated in an Na^+-free buffer (133.8 mM choline chloride, 4.7 mM KCl, 1.25 mM CaCl2, 1.25 mM MgCl2, 0.97 mM K2HPO4, 0.23 mM KH2PO4, 5 mM Hepes, 5 mM glucose, a pH of 7.0 is adjusted with 1 M NaOH). The substances to be tested were made up in the Na^+-containing buffer. The recovery of the intracellular pH at each test concentration of a substance was expressed as a percentage of the maximum recovery. The IC50 value for the particular substance for the individual NHE subtypes was calculated from the pH recovery percentages using the Sigma-Plot program.
In turn, `CC(=O)Nc1ccc(C2C[N+](C)(C)Cc3c(Cl)cc(Cl)cc32)cc1` (single isomer, unassigned; (+)) [Example 3c, (+)-4-(4-Acetylaminophenyl)-6,8-dichloro-2,2-dimethyl-1,2,3,4-tetrahydroisoquinolinium chloride] showed an IC50 of 0.43 µM.
In turn, `C[N+]1(C)Cc2c(Cl)cc(Cl)cc2C(c2ccc(S(N)(=O)=O)cc2)C1` (centres unmarked) [Example 2, 6,8-Dichloro-2,2-dimethyl-4-(4-sulfamoylphenyl)-1,2,3,4-tetrahydroisoquinolinium, Trifluoroacetate] returned a half-inhibitory concentration (IC50) of 0.9 µM.
As to `C[N+]1(C)Cc2c(Cl)cc(Cl)cc2C(c2ccccc2)C1` (centres unmarked) [Example 1, 6,8-Dichloro-2,2-dimethyl-4-phenyl-1,2,3,4-tetrahydroisoquinolinium, trifluoroacetate], inhibition was half-maximal at 0.23 µM (IC50).
For `C[N+]1(C)Cc2c(Cl)cc(Cl)cc2C(c2ccc(N)cc2)C1` (centres unmarked) [Example 4, 4-(4-Aminophenyl)-6,8-dichloro-2,2-dimethyl-1,2,3,4-tetrahydroisoquinolinium chloride, hydrochloride], it took 0.03 µM to reach half-maximal inhibition (IC50).
In turn, `CC(=O)Nc1ccc(C2C[N+](C)(C)Cc3c(Cl)cc(Cl)cc32)cc1` (centres unmarked) [Example 3a, 4-(4-Acetylaminophenyl)-6,8-dichloro-2,2-dimethyl-1,2,3,4-tetrahydroisoquinolinium iodide] yielded an IC50 of 0.67 µM.
